Experiments:
[1] = Hydrolysis and cyclization of active NHS ester in PBS; format: physicochemical; settings: PBS (pH 8.2), ligand coupling conditions
NK1 receptor = settings: 37°C; ref Garland et al., 1994; cited from earlier work

| Molecule | hydrolysis and cyclization of the active NHS ester [1] | time to NK1 receptor internalization upon activation (NK1 receptor) [min] |
| --- | --- | --- |
| O=C(CCCC[C@@H]1SC[C@@H]2NC(=O)N[C@@H]21)NCCCOCCOCCOCCCn1cc(CNC(=O)[C@H](CCCCNC(=O)CCC(=O)ON2C(=O)CCC2=O)NC(=O)CCc2ccc(C3(C(F)(F)F)N=N3)cc2)nn1 [probe 1, 2,5-Dioxopyrrolidin-1-yl 4-oxo-4-(((S)-6-oxo-6-(((1-(15-oxo-19-((3aS,4S,6aR)-2-oxohexahydro-1H-thieno[3,4-d]imidazol-4-yl)-4,7,10-trioxa-14-azanonadecyl)-1H-1,2,3-triazol-4-yl)methyl)amino)-5-(3-(4-(3-(trifluoromethyl)-3H-diazirin-3-yl)phenyl)propanamido)hexyl)amino)butanoate] | partial hydrolysis as well as intramolecular cyclization of the active NHS ester were inevitable |  |
| substance P [SP] |  | 3 |
